According to article PMC8364686, “Safety, tolerability, pharmacokinetics and pharmacodynamics of single oral doses of BI 187004, an inhibitor of 11beta-hydroxysteroid dehydrogenase-1, in healthy male volunteers with overweight or obesity” (Clinical Diabetes and Endocrinology, 2021):
Where “and” joins values, the source holds several entries; their conditions need not be identical. Identical values can stand only once.

Test: Plasma pharmacokinetics of BI 187004 after single oral doses (LC–MS/MS)
Details: for BI 187004 plasma concentrations: individual subjects
[1] = male, human, plasma, po, 2.5 mg
[2] = male, human, plasma, po, 2.5 mg, Plasma concentration Mean, 2.5 mg single oral
[3] = male, human, plasma, po, 2.5 mg, Plasma concentration Median, 2.5 mg single oral
[4] = male, human, plasma, po, 2.5 mg, Plasma concentration gMean, 2.5 mg single oral

For `N#Cc1ccc2c(c1)[C@H]1CCCN(C(=O)c3ccc4[nH]cnc4c3)[C@H]1C2` [BI 187004], the “Plasma concentration, individual subjects” value (2.5 mg single oral, planned time 0.5 h) was “BLQ (Below Limit of Quantification (<3.00 nmol/L)) and 5.84 nmol/L and 15.8 nmol/L and 8.84 nmol/L”, the “Plasma concentration, individual subjects” value (2.5 mg single oral, planned time 1 h) was “BLQ (Below Limit of Quantification (<3.00 nmol/L)) and 6.77 nmol/L and 28.4 nmol/L and 17.6 nmol/L and 7.86 nmol/L and 5.64 nmol/L” and the “Plasma concentration, individual subjects” value (2.5 mg single oral, planned time 1.5 h) was “BLQ (Below Limit of Quantification (<3.00 nmol/L)) and 6.06 nmol/L and 17.2 nmol/L and 14.9 nmol/L and 12.1 nmol/L and 5.62 nmol/L”. The “Plasma concentration, individual subjects” value (2.5 mg single oral, planned time 2 h) was “BLQ (Below Limit of Quantification (<3.00 nmol/L)) and 4.97 nmol/L and 13.8 nmol/L and 11.0 nmol/L and 9.41 nmol/L and 4.67 nmol/L”, the “Plasma concentration, individual subjects” value (2.5 mg single oral, planned time 2.5 h) was “BLQ (Below Limit of Quantification (<3.00 nmol/L)) and 4.45 nmol/L and 12.5 nmol/L and 10.1 nmol/L and 8.45 nmol/L” and the “Plasma concentration, individual subjects” value (2.5 mg single oral, planned time 3 h) was “BLQ (Below Limit of Quantification (<3.00 nmol/L)) and 3.48 nmol/L and 11.9 nmol/L and 8.37 nmol/L and 6.66 nmol/L and 3.95 nmol/L”. For the same compound, the “Plasma concentration, individual subjects” value (2.5 mg single oral, planned time 4 h) was “BLQ (Below Limit of Quantification (<3.00 nmol/L)) and 3.40 nmol/L and 10.7 nmol/L and 7.79 nmol/L and 6.03 nmol/L and 4.09 nmol/L”, the “Plasma concentration, individual subjects” value (2.5 mg single oral, planned time 5 h) was “BLQ (Below Limit of Quantification (<3.00 nmol/L)) and 9.77 nmol/L and 7.70 nmol/L and 6.49 nmol/L and 3.91 nmol/L” and the “Plasma concentration, individual subjects” value (2.5 mg single oral, planned time 6 h) was “BLQ (Below Limit of Quantification (<3.00 nmol/L)) and 7.52 nmol/L and 6.22 nmol/L and 5.34 nmol/L and 3.36 nmol/L”. For the same compound, the “Plasma concentration, individual subjects” value (2.5 mg single oral, planned time 8 h) was “BLQ (Below Limit of Quantification (<3.00 nmol/L)) and 6.55 nmol/L and 5.06 nmol/L”, the “Plasma concentration, individual subjects” value (2.5 mg single oral, planned time 10 h) was “BLQ (Below Limit of Quantification (<3.00 nmol/L)) and 5.19 nmol/L and 3.85 nmol/L and 3.08 nmol/L” and the “Plasma concentration, individual subjects” value (2.5 mg single oral, planned time 12 h) was “BLQ (Below Limit of Quantification (<3.00 nmol/L)) and 4.76 nmol/L and 4.10 nmol/L and 3.34 nmol/L”. The “Plasma concentration, individual subjects” value (2.5 mg single oral, planned time 24 h) was “BLQ (Below Limit of Quantification (<3.00 nmol/L)) and 6.66 nmol/L and 5.03 nmol/L and 3.69 nmol/L and 3.73 nmol/L”, the “Plasma concentration, individual subjects” value (2.5 mg single oral, planned time 36 h) was “BLQ (Below Limit of Quantification (<3.00 nmol/L)) and 3.88 nmol/L” and the “Plasma concentration, individual subjects” value (2.5 mg single oral, planned time 48 h) was “BLQ (Below Limit of Quantification (<3.00 nmol/L)) and 5.01 nmol/L and 4.22 nmol/L and 3.14 nmol/L”. For the same compound, the “Plasma concentration, individual subjects” value (2.5 mg single oral, planned time 72 h) was “BLQ (Below Limit of Quantification (<3.00 nmol/L)) and 3.91 nmol/L”, the “Plasma concentration, individual subjects” value (2.5 mg single oral, planned time 96 h) was “BLQ (Below Limit of Quantification (<3.00 nmol/L))” and the “Plasma concentration, individual subjects” value (2.5 mg single oral, planned time –0.5 h) was “BLQ (Below Limit of Quantification (<3.00 nmol/L))”. For the same compound, the “CL/F gMean (%gCV)” value (5 mg single oral dose) was 5.82 (23.0) L/h, the “Plasma concentration, individual subjects” value (5 mg single oral, planned time 0.5 h) was 17.6 nM and 16.1 nM and the “Plasma concentration, individual subjects” value (5 mg single oral, planned time 1 h) was 139 nM and 113 nM. The “Plasma concentration, individual subjects” value (5 mg single oral, planned time 1.5 h) was 137 nM and 105 nM, the “Plasma concentration, individual subjects” value (5 mg single oral, planned time 2 h) was 125 nM and 89.1 nM and the “Plasma concentration, individual subjects” value (5 mg single oral, planned time 2.5 h) was 113 nM and 99.4 nM. For the same compound, the “Plasma concentration, individual subjects” value (5 mg single oral, planned time 3 h) was 104 nM and 89.4 nM, the “Plasma concentration, individual subjects” value (5 mg single oral, planned time 4 h) was 97.2 nM and 80.1 nM and the “Plasma concentration, individual subjects” value (5 mg single oral, planned time 5 h) was 88.2 nM and 69.3 nM. For the same compound, the “Plasma concentration, individual subjects” value (5 mg single oral, planned time 6 h) was 74.1 nM and 59.0 nM and 90.2 nM, the “Plasma concentration, individual subjects” value (5 mg single oral, planned time 8 h) was 67.1 nM and 53.5 nM and 81.4 nM and the “Plasma concentration, individual subjects” value (5 mg single oral, planned time 10 h) was 63.2 nM and 54.2 nM and 38.5 nM and 58.5 nM. The “Plasma concentration, individual subjects” value (5 mg single oral, planned time 12 h) was 54.1 nM and 51.5 nM and 32.5 nM, the “Plasma concentration, individual subjects” value (5 mg single oral, planned time 24 h) was 30.9 nM and 21.5 nM and the “Plasma concentration, individual subjects” value (5 mg single oral, planned time 36 h) was 19.4 nM and 14.0 nM and 9.68 nM. The “Plasma concentration, individual subjects” value (5 mg single oral, planned time 48 h) was 20.9 nM and 11.6 nM and 10.6 nM, the “Plasma concentration, individual subjects” value (5 mg single oral, planned time 72 h) was 12.4 nM and 5.72 nM and 5.44 nM and the “Plasma concentration, individual subjects” value (5 mg single oral, planned time 96 h) was 7.71 nM and 4.37 nM and 3.26 nM. The “Plasma concentration, individual subjects” value (5 mg single oral, planned time –0.5 h) was “BLQ (Below Limit of Quantification (<3.00 nmol/L))”, the “CL/F gMean (%gCV)” value (10 mg single oral dose) was 4.93 (29.2) L/h and the “Plasma concentration, individual subjects” value (10 mg single oral, planned time –0.5 h) was “BLQ (Below Limit of Quantification (<3.00 nmol/L))”. The “CL/F gMean (%gCV)” value (20 mg single oral dose) was 4.70 (41.2) L/h, the “BI 187004 plasma concentrations” value (20 mg single oral, planned time 72 h) was “BLQ (Below Limit of Quantification (<3.00 nmol/L))” and the “BI 187004 plasma concentrations” value (20 mg single oral, planned time 96 h) was “BLQ (Below Limit of Quantification (<3.00 nmol/L))”. The “BI 187004 plasma concentrations” value (20 mg single oral, planned time –0.5 h) was “BLQ (Below Limit of Quantification (<3.00 nmol/L))”, the “CL/F gMean (%gCV)” value (40 mg single oral dose) was 4.50 (36.1) L/h and the “BI 187004 plasma concentrations” value (40 mg single oral, planned time –0.5 h) was “BLQ (Below Limit of Quantification (<3.00 nmol/L))”. For the same compound, the “CL/F gMean (%gCV)” value (80 mg single oral dose) was 4.56 (40.2) L/h, the “BI 187004 plasma concentrations” value (80 mg single oral, planned time –0.5 h) was “BLQ (Below Limit of Quantification (<3.00 nmol/L))” and the “CL/F gMean (%gCV)” value (160 mg single oral dose) was 4.21 (19.5) L/h. The “BI 187004 plasma concentrations” value (160 mg single oral, planned time 96 h) was “BLQ (Below Limit of Quantification (<3.00 nmol/L))”, the “BI 187004 plasma concentrations” value (160 mg single oral, planned time –0.5 h) was “BLQ (Below Limit of Quantification (<3.00 nmol/L))” and the “Time to Cmax, single subject (subject 64)” value (240 mg) was 24 h. For the same compound, the “CL/F gMean (%gCV)” value (240 mg single oral dose) was 6.44 (53.4) L/h, the “BI 187004 plasma concentrations” value (240 mg single oral, planned time -0.5 h) was “BLQ (Below Limit of Quantification (<3.00 nmol/L))” and the “CL/F gMean (%gCV)” value (360 mg single oral dose) was 5.48 (25.4) L/h. For the same compound, the “BI 187004 plasma concentrations” value (360 mg single oral, planned time –0.5 h) was “BLQ (Below Limit of Quantification (<3.00 nmol/L))”, the “Apparent clearance (CL/F), range across dose groups” value (5–360 mg) was 4.21—6.44 L/h and the concentration at 96 h (male, human, in vivo, po, 240 mg) was 18.4 nM. The Vd/F (male, human, plasma, oral) was 87.9 to 281 L, the concentration at 10 h (male, human, plasma, oral, 10 mg, Plasma C10 gMean (range), 10 mg single dose) was 174 nM and the concentration at 24 h (male, human, plasma, oral, 10 mg, Plasma C24 gMean (range), 10 mg single dose, 24 h) was 71.3 nM. For the same compound, the concentration at 10 h (male, human, plasma, oral, 20 mg, Plasma C10 gMean (range), 20 mg single dose) was 382 nM, the concentration at 24 h (male, human, plasma, oral, 20 mg, Plasma C24 gMean (range), 20 mg single dose, 24 h) was 161 nM and the concentration at 10 h (male, human, plasma, oral, 40 mg, Plasma C10 gMean (range), 40 mg single dose) was 796 nM. The concentration at 24 h (male, human, plasma, oral, 40 mg, Plasma C24 gMean (range), 40 mg single dose, 24 h) was 321 nM, the concentration at 10 h (male, human, plasma, oral, 80 mg, Plasma C10 gMean (range), 80 mg single dose) was 1530 nM and the concentration at 24 h (male, human, plasma, oral, 80 mg, Plasma C24 gMean (range), 80 mg single dose, 24 h) was 878 nM. It also gave a concentration at 10 h (male, human, plasma, oral, 160 mg, Plasma C10 gMean (range), 160 mg single dose) of 3000 nM, a concentration at 24 h (male, human, plasma, oral, 160 mg, Plasma C24 gMean (range), 160 mg single dose, 24 h) of 1630 nM and a concentration at 10 h (male, human, plasma, oral, 240 mg, Plasma C10 gMean (range), 240 mg single dose) of 2600 nM. The concentration at 24 h (male, human, plasma, oral, 240 mg, Plasma C24 gMean (range), 240 mg single dose, 24 h) was 2130 nM, the concentration at 10 h (male, human, plasma, oral, 360 mg, Plasma C10 gMean (range), 360 mg single dose) was 5300 nM and the concentration at 24 h (male, human, plasma, oral, 360 mg, Plasma C24 gMean (range), 360 mg single dose, 24 h) was 2690 nM. It also gave a Tmax (male, human, plasma, po) of 1 to 1.5 h, an AUC(0-t) [1] of 0.212 µM·h and a Cmax [1] of 11.8 nM. The Tmax [1] was 1 h, the concentration at 24 h (male, human, plasma, po, 2.5 mg, C24 gMean (%gCV), 2.5 mg single oral dose) was 4.54 nM and the concentration at 1 h [2] was 13.3 nM. It also gave a concentration at 1.5 h [2] of 11.2 nM, a concentration at 2 h [2] of 8.77 nM and a concentration at 2.5 h [2] of 7.99 nM. The concentration at 3 h [2] was 6.87 nM, the concentration at 4 h [2] was 6.4 nM and the concentration at 5 h [2] was 6.97 nM. It also gave a concentration at 6 h [2] of 5.61 nM, a concentration at 10 h [2] of 4.53 nM and a concentration at 12 h [2] of 4.66 nM. It also gave a concentration at 24 h (male, human, plasma, po, 2.5 mg, Plasma concentration Mean, 2.5 mg single oral, 24 h) of 4.66 nM, a concentration at 48 h [2] of 3.99 nM and a concentration at 1 h [3] of 7.86 nM. For the same compound, the concentration at 1.5 h [3] was 12.1 nM, the concentration at 2 h [3] was 9.41 nM and the concentration at 2.5 h [3] was 8.45 nM. The concentration at 3 h [3] was 6.66 nM, the concentration at 4 h [3] was 6.03 nM and the concentration at 5 h [3] was 7.1 nM. For the same compound, the concentration at 6 h [3] was 5.78 nM, the concentration at 10 h [3] was 4.52 nM and the concentration at 12 h [3] was 4.43 nM. It also gave a concentration at 24 h (male, human, plasma, po, 2.5 mg, Plasma concentration Median, 2.5 mg single oral, 24 h) of 4.19 nM, a concentration at 48 h [3] of 3.9 nM and a concentration at 1 h [4] of 10.8 nM. For the same compound, the concentration at 1.5 h [4] was 10.1 nM and the concentration at 2 h [4] was 8.02 nM.
